Patent publication US20080288176A1 (priority 2005, published 2008)

Assays:
[1] = system: male Wistar rats; experiment: Urine alanine aminopeptidase to creatinine ratio (proximal tubular kidney damage); type: in vivo, rat; conditions: for AAP/Cr (urine alanine aminopeptidase to creatinine), Mean: oral gavage, urine collected for 6 hours
Excerpt: Myocardial infarction and ischemic events in high risk patients led one of the most popular COX-2 inhibitors to its demise (Bresalier et al., 2005). Non-selective NSAIDS may also cause similar problems due to their ability to inhibit COX-2. […] Adenosine diphosphate (ADP) generation is an indicator of myocardial infarction which has no connection with the arachidonic acid cascade (Borna et al., 2005). […] Long term NSAID use has been linked to kidney damage and hypertension (Zafirovska et al., 1993). […] This was associated with an increase in the urine the ratio of alanine-amino-peptidase (AAP) and creatinine.
(§1) Table 1 is a summary of the protocol for a study which was conducted in male Wistar rats weighing 275-300 grams. The animals were allowed to acclimatize for at least five days prior to the commencement of the study. The study protocol was approved by the local animal ethics committee.
All test animals, housed in metabolic cages, had urine collected over wet ice for 6 hours after dosing. Aliquots of the urine from each animal were collected to determine creatinine concentration. The remainder of the urine was centrifuged at 1000 g for 10 minutes. The supernatant was collected and mixed with analytical grade ethylene glycol at a rate of 0.4 mL ethylene glycol per 1 mL urine supernatant. The ethylene glycol/urine mixture was stored at −80° C. until analysis.

[2] = Hydrolysis in human plasma; type: in vitro ADME
Excerpt: The physiologically based pharmacokinetic/pharmacodynamic model of the present invention contains a series of compartments that describe the time course of a nonsteroidal anti-inflammatory prodrug, its active metabolites and nitric oxide release in intestine, liver, kidneys, blood/plasma and heart after prodrug administration. The time course of the prodrug, its active metabolites and nitric oxide release can be simulated using a series of in vitro and in silico inputs. The stability of each component in the gastrointestinal lumen is estimated using data collected from artificial gastric and intestinal juice. Intestinal metabolism is estimated using intestinal microsomes and absorption rate is estimated using permeability data collected from a cell monolayer such as Caco-2. Hepatic elimination is estimated using liver microsomes and stability in plasma is calculated using degradation of each component in the media. Plasma protein binding can either be measured using a standardized in vitro method or it can be estimated using an in silico method. The distribution of each component in various parts of the body is estimated using an in silico method. The rate of nitric oxide release is estimated using an in vitro endothelial cell model. […]

[3] = Plasma NAPROXEN AUC0-6h after oral dosing; type: in vivo, rat; conditions: male Wistar rats
Experimental: as §1

[4] = in vitro; Knaus et al., 2005; cited from earlier work

## COc1ccc2cc([C@H](C)C(=O)OCCCCO[N+](=O)[O-])ccc2c1 [AZD 3582]
[1]
  Urine AAP/creatinine ratio change (in words): did cause an increase
  AAP/Cr (urine alanine aminopeptidase to creatinine), Mean: 403.400
[2]
  plasma decay rate constant: 1.0 min⁻¹
[3]
  AUC0-6h of NAPROXEN compared with parent drug (in words): much lower than for NAPROXEN parent drug

## COc1ccc2cc(C(C)C(=O)OCON=[N+]([O-])N3CCCC3)ccc2c1 (stereo not drawn) [PYRO-NO-NAP, pyrrolidino-diazeniumdiolate-naproxen]
[1]
  AAP/Cr (urine alanine aminopeptidase to creatinine), Mean: 195.569
[4]
  NO generating capacity relative to AZD 3582: 13 times
